{"source": "patent US20030022158A1", "about": "“Peptides from the TT virus sequence and monospecific antibodies binding to the TT virus” (priority 1999, published 2003)", "key": {"[1]": {"system": "human IgG antibodies in human serum samples", "assay": "EIA of human antibody reactivities to overlapping synthetic peptides of TTV ORF1 and ORF2 (Tables 2 and 3)", "format": "binding", "details": "for reactivity with serum samples from patients with TTV infection: eight samples with TTV infection; for optical density (OD) at 405 nm: serum diluted 1:100, OD over 0.500 considered positive", "how_it_was_run": "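Plates were coated 48 h with 18-mer peptides (8-residue overlap) at 10 μg/ml in carbonate buffer pH 9.6, then blocked 2 h at room temperature in PBS/1% BSA/2% goat serum/0.05% Tween 20. Sera were applied at 1:100, and bound IgG was detected with alkaline phosphatase anti-human IgG, read at 405 nm.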"}, "[2]": {"system": "human antibodies in human serum samples", "assay": "EIA reactivities of three human serum samples with deletion and alanine substitution analogues of SEQ ID NO: 1 (Table 6)", "format": "binding", "details": "positive = more than 50% of the reactivity of the original peptide", "how_it_was_run": "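Plates coated 48 hours with synthetic peptides at 10 μg/ml in carbonate buffer pH 9.6, blocked, then incubated with human sera diluted 1:100. Bound human IgG detected with alkaline phosphatase anti-human IgG; OD read at 405 nm, mapping deletion and alanine-substitution analogues of SEQ ID NO: 1.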"}, "[3]": {"system": "anti-TTV antibodies present in human serum", "assay": "Inhibition of serum reactivity to plate-bound peptide by peptide in solution", "format": "binding", "details": "peptide SEQ ID NO: 1 on the microplate"}, "[4]": {"system": "human antibodies in human serum samples P4, P6, P7", "assay": "EIA reactivities of serial dilutions of three human serum samples with TTV peptide SEQ ID NO: 1 (Table 5)", "format": "binding", "procedure": "The EIAs used to identify which peptides interacted with human sera followed protocols known in the art. (See Zhang et al., J Gen Virol, 78:2735-2746 (1997), herein expressly incorporated by reference in its entirety). Briefly, microplates (Nunc, Denmark) were coated for 48 hours with synthetic peptides at a concentration of 10 μg/ml in 0.05M sodium carbonate buffer pH 9.6. […] Bound human IgG was detected by incubation with anti-human IgG antibodies conjugated to alkaline phosphatase (Sigma Chemicals, St. Louis, Mo.). The plates were developed by the addition of […] (Sigma) and the optical densities were determined at 405 nm."}, "Balb/c mice": {"system": "Balb/c mice", "assay": "Immunization of Balb/c mice with TTV peptide 35, anti-peptide antibody titers", "format": "in vivo, mouse", "details": "five Balb/c mice, 100 μg intra-peritoneally in complete Freund's adjuvant, booster week four", "procedure": "A total of five Balb/c mice were immunized intra-peritoneally with 100 μg of TTV peptide 35 (SEQ ID NO: 1) emulsified 1:1 in complete Freund's adjuvant. Venous blood samples were obtained on weeks 2, 4, and 6. A booster dose of 100 μg in incomplete Freund's adjuvant was given on week four. […] The anti-peptide titers were 1:60 at week 4 and 1:2160 at week 6. […] The following section describes more on the production of antibodies specific for TTV."}}}
{"sequence": "TATTTTYAYPGTNRPPV (Peptide Immunogen) [peptide 35, overlapping synthetic peptide of TTV ORF1]", "values": [{"measurement": "reactivity with serum samples from patients with TTV infection", "setting": "[1]; EIA", "result": "reactive to most of the TTV infected serum samples"}, {"measurement": "reactivity with serum samples from patients with TTV infection", "setting": "[1]; EIA, listed as TATTTTYAYPGTNRPPV", "result": "Every sample from patients with TTV infection was found to be reactive"}, {"measurement": "optical density (OD) at 405 nm", "setting": "[1]; human serum sample 1, negative for TTV DNA by PCR", "result": 0.18, "unit": "OD"}, {"measurement": "optical density (OD) at 405 nm", "setting": "[1]; human serum sample 2, negative for TTV DNA by PCR", "result": 0.17, "unit": "OD"}, {"measurement": "optical density (OD) at 405 nm", "setting": "[1]; human serum sample 3, negative for TTV DNA by PCR", "result": 0.27, "unit": "OD"}, {"measurement": "optical density (OD) at 405 nm", "setting": "[1]; human serum sample 4, negative for TTV DNA by PCR", "result": 1.40, "unit": "OD"}, {"measurement": "optical density (OD) at 405 nm", "setting": "[1]; human serum sample 5, negative for TTV DNA by PCR", "result": 0.25, "unit": "OD"}, {"measurement": "optical density (OD) at 405 nm", "setting": "[1]; human serum sample 6, negative for TTV DNA by PCR", "result": 0.64, "unit": "OD"}, {"measurement": "optical density (OD) at 405 nm", "setting": "[1]; human serum sample 7, negative for TTV DNA by PCR", "result": 2.10, "unit": "OD"}, {"measurement": "optical density (OD) at 405 nm", "setting": "[1]; human serum sample 9, positive for TTV DNA by PCR", "result": 0.10, "unit": "OD"}, {"measurement": "optical density (OD) at 405 nm", "setting": "[1]; human serum sample 11, negative for TTV DNA by PCR", "result": 0.64, "unit": "OD"}, {"measurement": "optical density (OD) at 405 nm", "setting": "[1]; human serum sample 18, positive for TTV DNA by PCR", "result": 0.10, "unit": "OD"}, {"measurement": "optical density (OD) at 405 nm", "setting": "[1]; human serum sample 36, positive for TTV DNA by PCR", "result": 1.22, "unit": "OD"}, {"measurement": "optical density (OD) at 405 nm", "setting": "[1]; human serum sample 48, positive for TTV DNA by PCR", "result": 1.11, "unit": "OD"}, {"measurement": "optical density (OD) at 405 nm", "setting": "[1]; human serum sample 98, positive for TTV DNA by PCR", "result": 0.05, "unit": "OD"}, {"measurement": "optical density (OD) at 405 nm", "setting": "[1]; human serum sample 110, positive for TTV DNA by PCR", "result": 0.47, "unit": "OD"}, {"measurement": "optical density (OD) at 405 nm", "setting": "[1]; human serum sample 155, positive for TTV DNA by PCR", "result": 0.95, "unit": "OD"}, {"measurement": "optical density (OD) at 405 nm", "setting": "[1]; human serum sample 157, positive for TTV DNA by PCR", "result": 0.86, "unit": "OD"}, {"measurement": "human reactivity to peptide (reactive peptides within ORF1)", "setting": "[1]; tested human sera, EIA", "result": "Reactive"}, {"measurement": "OD at 405 nm, reactivity of human serum sample P4", "setting": "[2]; human serum sample P4", "result": 0.748, "unit": "OD"}, {"measurement": "OD at 405 nm, reactivity of human serum sample P7", "setting": "[2]; human serum sample P7", "result": 1.659, "unit": "OD"}, {"measurement": "OD at 405 nm, reactivity of human serum sample P36", "setting": "[2]; human serum sample P36", "result": 0.722, "unit": "OD"}, {"measurement": "inhibition of serum reactivity to the peptide on the microplate by peptide in solution", "setting": "[3]", "result": "inhibited"}, {"measurement": "OD at 405 nm", "setting": "[4]; human serum sample P4, dilution of serum sample 1:100", "result": 1.285, "unit": "OD"}, {"measurement": "OD at 405 nm", "setting": "[4]; human serum sample P4, dilution of serum sample 1:200", "result": 0.758, "unit": "OD"}, {"measurement": "OD at 405 nm", "setting": "[4]; human serum sample P4, dilution of serum sample 1:400", "result": 0.411, "unit": "OD"}, {"measurement": "OD at 405 nm", "setting": "[4]; human serum sample P4, dilution of serum sample 1:800", "result": 0.234, "unit": "OD"}, {"measurement": "OD at 405 nm", "setting": "[4]; human serum sample P4, dilution of serum sample 1:1600", "result": 0.131, "unit": "OD"}, {"measurement": "OD at 405 nm", "setting": "[4]; human serum sample P4, dilution of serum sample 1:3200", "result": 0.076, "unit": "OD"}, {"measurement": "OD at 405 nm", "setting": "[4]; human serum sample P4, dilution of serum sample 1:6400", "result": 0.058, "unit": "OD"}, {"measurement": "OD at 405 nm", "setting": "[4]; human serum sample P4, dilution of serum sample 1:12800", "result": 0.046, "unit": "OD"}, {"measurement": "OD at 405 nm", "setting": "[4]; human serum sample P6, dilution of serum sample 1:100", "result": 0.687, "unit": "OD"}, {"measurement": "OD at 405 nm", "setting": "[4]; human serum sample P6, dilution of serum sample 1:200", "result": 0.375, "unit": "OD"}, {"measurement": "OD at 405 nm", "setting": "[4]; human serum sample P6, dilution of serum sample 1:400", "result": 0.19, "unit": "OD"}, {"measurement": "OD at 405 nm", "setting": "[4]; human serum sample P6, dilution of serum sample 1:800", "result": 0.104, "unit": "OD"}, {"measurement": "OD at 405 nm", "setting": "[4]; human serum sample P6, dilution of serum sample 1:1600", "result": 0.067, "unit": "OD"}, {"measurement": "OD at 405 nm", "setting": "[4]; human serum sample P6, dilution of serum sample 1:3200", "result": 0.049, "unit": "OD"}, {"measurement": "OD at 405 nm", "setting": "[4]; human serum sample P6, dilution of serum sample 1:6400", "result": 0.043, "unit": "OD"}, {"measurement": "OD at 405 nm", "setting": "[4]; human serum sample P6, dilution of serum sample 1:12800", "result": 0.041, "unit": "OD"}, {"measurement": "OD at 405 nm", "setting": "[4]; human serum sample P7, dilution of serum sample 1:100", "result": 1.782, "unit": "OD"}, {"measurement": "OD at 405 nm", "setting": "[4]; human serum sample P7, dilution of serum sample 1:200", "result": 1.23, "unit": "OD"}, {"measurement": "OD at 405 nm", "setting": "[4]; human serum sample P7, dilution of serum sample 1:400", "result": 0.79, "unit": "OD"}, {"measurement": "OD at 405 nm", "setting": "[4]; human serum sample P7, dilution of serum sample 1:800", "result": 0.45, "unit": "OD"}, {"measurement": "OD at 405 nm", "setting": "[4]; human serum sample P7, dilution of serum sample 1:1600", "result": 0.246, "unit": "OD"}, {"measurement": "OD at 405 nm", "setting": "[4]; human serum sample P7, dilution of serum sample 1:3200", "result": 0.131, "unit": "OD"}, {"measurement": "OD at 405 nm", "setting": "[4]; human serum sample P7, dilution of serum sample 1:6400", "result": 0.087, "unit": "OD"}, {"measurement": "OD at 405 nm", "setting": "[4]; human serum sample P7, dilution of serum sample 1:12800", "result": 0.061, "unit": "OD"}, {"measurement": "dependence of reactivity on serum dilution", "setting": "[4]; serial dilutions of serum samples", "result": "dependent on the dilution of the serum samples"}, {"measurement": "mice developing detectable peptide-specific antibodies", "setting": "Balb/c mice", "result": "one developed detectable antibodies"}]}
